Source: PMC3635961, “Identification of genes related to agarwood formation: transcriptome analysis of healthy and wounded tissues of Aquilaria sinensis” (BMC Genomics, 2013)
Positions count from the first letter of the chain named.

How the values were obtained:
Test in all cases: GC-MS of volatile products (SPME)
Assay type in all cases: biochemical
Conditions in all cases: Tris-HCl pH 7.0, MgSO4, DTT, 10% glycerol, 30 C, 4 h; crude protein extract
ASS3 = molecular target: T1, ASS3 (Aquilaria sinensis, UniProt K9MPP8)
T1 construct: full-length ORF (1644 nt, 547 residues), pET-28a fusion protein, E. coli; crude protein extract assayed
T1 sequence (K9MPP8 1-547): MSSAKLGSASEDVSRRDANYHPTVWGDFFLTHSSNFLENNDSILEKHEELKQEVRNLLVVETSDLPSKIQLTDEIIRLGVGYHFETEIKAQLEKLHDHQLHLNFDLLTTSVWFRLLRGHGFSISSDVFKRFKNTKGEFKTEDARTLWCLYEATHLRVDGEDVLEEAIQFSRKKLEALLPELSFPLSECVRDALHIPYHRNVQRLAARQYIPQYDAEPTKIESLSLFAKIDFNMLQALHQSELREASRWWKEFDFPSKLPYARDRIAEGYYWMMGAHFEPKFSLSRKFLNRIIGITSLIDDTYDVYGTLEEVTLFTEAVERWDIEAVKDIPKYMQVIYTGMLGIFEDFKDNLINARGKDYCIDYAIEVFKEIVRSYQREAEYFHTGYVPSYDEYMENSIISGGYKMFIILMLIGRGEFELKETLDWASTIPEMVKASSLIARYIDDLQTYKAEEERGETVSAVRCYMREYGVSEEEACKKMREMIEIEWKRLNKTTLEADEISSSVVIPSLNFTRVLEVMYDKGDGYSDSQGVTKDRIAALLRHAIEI

ASS1 = molecular target: T2, ASS1 (Aquilaria sinensis, UniProt K9MQ67)
T2 construct: full-length ORF (1644 nt, 547 residues), pET-28a XhoI/BamHI, His-tag fusion, E. coli BL21(DE3); crude protein extract assayed

ASS2 = molecular target: T3, ASS2 (Aquilaria sinensis, UniProt K9MNV6)
T3 construct: full-length ORF (1644 nt, 547 residues), pET-28a fusion protein, E. coli; crude protein extract assayed
T3 sequence (K9MNV6 1-547): T1 sequence (K9MPP8 1-547) with E454K, R481K

T2 sequence (K9MQ67 entry or part of it): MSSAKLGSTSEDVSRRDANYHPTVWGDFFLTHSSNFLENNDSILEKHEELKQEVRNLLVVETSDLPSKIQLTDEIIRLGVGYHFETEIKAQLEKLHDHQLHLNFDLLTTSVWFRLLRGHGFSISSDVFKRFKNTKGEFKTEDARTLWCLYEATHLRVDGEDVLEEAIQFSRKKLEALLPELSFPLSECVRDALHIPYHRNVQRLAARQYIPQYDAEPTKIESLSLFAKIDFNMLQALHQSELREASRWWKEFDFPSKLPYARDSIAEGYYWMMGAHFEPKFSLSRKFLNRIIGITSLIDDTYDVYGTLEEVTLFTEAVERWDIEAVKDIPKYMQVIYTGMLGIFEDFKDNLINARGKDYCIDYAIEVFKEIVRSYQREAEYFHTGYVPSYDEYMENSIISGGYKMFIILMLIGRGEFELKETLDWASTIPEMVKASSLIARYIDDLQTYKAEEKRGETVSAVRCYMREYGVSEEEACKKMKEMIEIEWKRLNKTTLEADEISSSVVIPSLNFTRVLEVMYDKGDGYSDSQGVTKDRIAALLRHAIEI

CC(C)=CCC/C(C)=C/CC/C(C)=C/COP(=O)(O)OP(=O)(O)O [FPP]
GC-MS of volatile products (SPME) (ASS3): ASS1-3 did not accept geranyl diphosphate or geranylgeranyl diphosphate as a substrate, converting only FPP
GC-MS of volatile products (SPME) (ASS1): ASS1-3 did not accept geranyl diphosphate or geranylgeranyl diphosphate as a substrate, converting only FPP
GC-MS of volatile products (SPME) (ASS2): ASS1-3 did not accept geranyl diphosphate or geranylgeranyl diphosphate as a substrate, converting only FPP
